Data as given in ChEMBL document CHEMBL6103573, “Discovery of novel thienopyridine indole derivatives as inhibitors of tubulin polymerization targeting the colchicine-binding site with potent anticancer activities” (Eur J Med Chem, 2025).
Active and inactive are the calls of the source. The rule behind the calls is not given here.

Key:
[1] = Cytotoxicity against human GES1 cells assessed as inhibition of cell proliferation incubated for 48 hrs by MTT assay; assay type: toxicity, cell-based
MGC-803 [2] = test: Inhibition of colony formation in human MGC-803 cells incubated for 7 days by crystal violet staining based colony formation assay; assay type: functional, cell-based; conditions: dose 0.1-0.5 nmol/L, time 7.0 day
Tubulin (Homo sapiens) [3] = molecular target: T1, Tubulin (Homo sapiens) (UniProt P68371+Q9H4B7+P0DPH7+P68366+Q13509+Q71U36+P04350+Q3ZCM7+P07437+P68363+Q9BQE3+Q6PEY2+Q13885+Q9BVA1+Q9BUF5); test: Inhibition of tubulin (unknown origin) polymerization assessed as decrease in fluorescence intensity at 3 micromol/L in the presence of GTP by fluorescence microplate reader; assay type: protein-complex assay; conditions: dose 3.0 µmol/L
MGC-803 [4] = test: Induction of apoptosis in human MGC-803 cells assessed as increase in cleaved Caspase-7 expression at 0.25 to 2.0 nmol/L incubated for 48 hrs by Western blotting analysis; assay type: functional, cell-based; conditions: dose 0.25-2 nmol/L
HUVEC [5] = test: Anti-angiogenesis activity in HUVEC cells assessed as reduction in cell viability by measuring survival rate at 2 nmol/L incubated for 24 hrs by MTT assay relative to control; assay type: functional; conditions: Homo sapiens, read-out: Survival
HGC-27 [6] = test: Induction of apoptosis in human HGC-27 cells assessed as appearance of bright cells at 0.25 to 2.0 nmol/L incubated for 48 hrs by bright field microscopic analysis; assay type: functional, cell-based; conditions: dose 0.25-2 nmol/L
MGC-803 [7] = test: Induction of apoptosis in human MGC-803 cells assessed as late apoptotic cells at 1.5 nmol/L incubated for 48 hrs by Annexin V-FITC/propidium iodide staining based flow cytometry analysis (reference value: 2.22 %); assay type: functional
HUVEC [8] = test: Anti-migratory activity against HUVEC cells assessed as wound healing rate at 1 nmol/L measured after 24 hrs by wound healing assay (reference value: 97 %); assay type: functional, Homo sapiens
MGC-803 [9] = test: Induction of apoptosis in human MGC-803 cells assessed as increase in cleaved PARP expression at 0.25 to 2.0 nmol/L incubated for 48 hrs by Western blotting analysis; assay type: functional, cell-based; conditions: dose 0.25-2 nmol/L
HGC-27 [10] = test: Induction of apoptosis in human HGC-27 cells assessed as early apoptotic cells at 2.0 nmol/L incubated for 48 hrs by Annexin V-FITC/propidium iodide staining based flow cytometry analysis (reference value: 2.04 %); assay type: functional
HGC-27 [11] = test: Induction of cell cycle arrest in human HGC-27 cells assessed as accumulation of cells at G2/M phase incubated for 24 hrs by RNase A/propidium iodide staining based flow cytometric analysis; assay type: functional; conditions: dose 0.25-2 nmol/L
MGC-803 [12] = test: Induction of apoptosis in human MGC-803 cells assessed as increase in total apoptotic rate at 2 nmol/L incubated for 48 hrs by Annexin V-FITC/propidium iodide staining based flow cytometry analysis relative to control; assay type: functional
HGC-27 [13] = test: Induction of apoptosis in human HGC-27 cells assessed as appearance of round cells at 0.25 to 2.0 nmol/L incubated for 48 hrs by bright field microscopic analysis; assay type: functional, cell-based; conditions: dose 0.25-2 nmol/L
HUVEC [14] = test: Anti-angiogenesis activity in HUVEC cells assessed as reduction in cell viability by measuring survival rate at 2 nmol/L incubated for 48 hrs by MTT assay relative to control; assay type: functional; conditions: Homo sapiens, read-out: Survival
HGC-27 [15] = test: Inhibition of colony formation in human HGC-27 cells at 0.5 nmol/L incubated for 7 days by crystal violet staining based colony formation assay relative to control; assay type: functional; conditions: HGC-27, 168 h, time 7 day
MGC-803 [16] = test: Induction of apoptosis in human MGC-803 cells assessed as early apoptotic cells at 0.25 nmol/L incubated for 48 hrs by Annexin V-FITC/propidium iodide staining based flow cytometry analysis (reference value: 0.83 %); assay type: functional
HGC-27 [17] = test: Antiproliferative activity against human HGC-27 cells assessed as survival rate at 2 nmol/L measured after 48 hrs by MTT assay relative to control; assay type: functional; conditions: read-out: Survival
[18] = Toxicity in female BALB/c-nu nude mouse xenografted with human MGC-803 cells assessed as change in lung morphology at 5 mg/kg, po administrated every other day for 11 times and measured after 21 days by hematoxylin and eosin staining based analysis; assay type: organism-based; conditions: in vivo, 504 h, time 21 day
HGC-27 [19] = test: Induction of cell cycle arrest in human HGC-27 cells assessed as accumulation of cells at G2/M phase at 2 nmol/L incubated for 24 hrs by RNase A/propidium iodide staining based flow cytometric analysis relative to control; assay type: functional
[20] = molecular target: Tubulin beta (Homo sapiens) (UniProt P68371+Q9H4B7+Q13509+P04350+Q3ZCM7+P07437+Q13885+Q9BVA1+Q9BUF5+A6NNZ2); test: Competitive binding affinity to beta-tubulin colchicine binding site in human MGC-803 cells assessed as inhibition of EBI-beta-tubulin adduct band formation at 1 umol/L preincubated for 2 hrs followed by EBI addition and measured after 2 hrs by Western blotting analysis; assay type: cell-based; conditions: dose 1.0 µmol/L, time 4.0 hrs
MGC-803 [21] = test: Induction of apoptosis in human MGC-803 cells assessed as total apoptotic rate at 2 nmol/L incubated for 48 hrs by Annexin V-FITC/propidium iodide staining based flow cytometry analysis relative to control; assay type: functional
HUVEC [22] = test: Anti-angiogenesis activity in HUVEC cells assessed as effect on cell vitality at <= 1 nmol/L measured within 24 hrs; assay type: functional, cell-based; conditions: Homo sapiens
HGC-27 [23] = test: Antiproliferative activity against human HGC-27 cells assessed as cell viability at 0.5 to 2 nmol/L incubated for 48 hrs by MTT assay (reference value: 86 %); assay type: functional; conditions: dose 0.5-2 nmol/L, at 0.5 to 2 nM
HGC-27 [24] = test: Induction of apoptosis in human HGC-27 cells assessed as early apoptotic cells at 0.5 nmol/L incubated for 48 hrs by Annexin V-FITC/propidium iodide staining based flow cytometry analysis (reference value: 2.04 %); assay type: functional
[25] = Toxicity in female BALB/c-nu nude mouse xenografted with human MGC-803 cells assessed as change in heart morphology at 5 mg/kg, po administrated every other day for 11 times and measured after 21 days by hematoxylin and eosin staining based analysis; assay type: organism-based; conditions: in vivo, 504 h, time 21 day
HCT-116 = test: Antiproliferative activity against human HCT-116 cells assessed as inhibition of cell proliferation incubated for 48 hrs by MTT assay; assay type: functional, cell-based; conditions: HCT-116, 48 h
NCI-H1975 = test: Antiproliferative activity against human NCI-H1975 cells assessed as inhibition of cell proliferation incubated for 48 hrs by MTT assay; assay type: functional, cell-based; conditions: NCI-H1975, 48 h
HGC-27 [26] = test: Induction of apoptosis in human HGC-27 cells assessed as late apoptotic cells at 2.0 nmol/L incubated for 48 hrs by Annexin V-FITC/propidium iodide staining based flow cytometry analysis (reference value: 3.70 %); assay type: functional
Tubulin (Homo sapiens) [27] = molecular target: T1, Tubulin (Homo sapiens); test: Disruption of microtubule network in human MGC-803 cells assessed as appearance of multinucleation at 0.25 to 2.0 nmol/L incubated for 24 hrs by DAPI staining based fluorescence microscopic analysis; assay type: cell-based; conditions: dose 0.25-2 nmol/L
HGC-27 [28] = test: Antiproliferative activity against human HGC-27 cells assessed as survival rate at 2 nmol/L measured after 6 hrs by MTT assay relative to control; assay type: functional; conditions: read-out: Survival
Tubulin (Homo sapiens) [29] = molecular target: T1, Tubulin (Homo sapiens); test: Disruption of microtubule network in human HGC-27 cells assessed as appearance of multinucleation at 0.25 to 2.0 nmol/L incubated for 24 hrs by DAPI staining based fluorescence microscopic analysis; assay type: cell-based; conditions: dose 0.25-2 nmol/L

Compound: CN(c1ccc2c(ccn2C)c1)c1nc(N2CCCC2)nc2sccc12
- IC50 at 48 h [1]: 31.1 nM
- inhibition (MGC-803 [2]): Dose-dependent-effect
- inhibition (Tubulin (Homo sapiens) [3]): Active
- Activity (MGC-803 [4]): Active
- viability at 0.002 µM (HUVEC [5]): 59.2%
- Activity (HGC-27 [6]): Active
- Activity (MGC-803 [7]): 6.33%
- Activity (HUVEC [8]): 58%
- Activity (MGC-803 [9]): Active
- Activity (HGC-27 [10]): 14.4%
- Activity (HGC-27 [11]): Dose-dependent-effect
- Activity (MGC-803 [12]): 60%
- Activity (HGC-27 [13]): Active
- viability at 0.002 µM (HUVEC [14]): 28.3%
- inhibition at 0.0005 µM (HGC-27 [15]): > 90%
- Activity (MGC-803 [16]): 1.28%
- viability at 0.002 µM (HGC-27 [17]): 48%
- Activity [18]: Non-toxic
- Activity (HGC-27 [19]): 43.9%
- Activity [20]: Active; Stronger Affinity Observed
- Activity (MGC-803 [21]): 63%
- Activity (HUVEC [22]): Active; Minimal Impact Observed
- Activity (HGC-27 [23]): 38%
- Activity (HGC-27 [24]): 4.64%
- Activity [25]: Non-toxic
- IC50 (HCT-116): 2.89 nM
- IC50 (NCI-H1975): 2.96 nM
- Activity (HGC-27 [26]): 5.64%
- Activity (Tubulin (Homo sapiens) [27]): Active
- viability at 0.002 µM (HGC-27 [28]): 83%
- Activity (Tubulin (Homo sapiens) [29]): Active
